Results as given in patent US9689244B2, “Process for water wetting oil-wet surfaces” (BASF SE, priority 2012, dated 2017).

Tests used:
Format in all cases: physicochemical
[1] = Surface tension (DuNouy ring method) and critical micelle formation concentration
Experimental: The surface tension was measured as a function of the concentration of the surface active components using the DuNouy ring method (according to Din 53914). The critical micelle formation concentration (cmc) was derived in the usual manner from the measurement graph.
The salts used were NaCl and CaCl2 at a weight ratio of 9:1 NaCl/CaCl2.

[2] = Interfacial tension between aqueous solution and oil phase (spinning drop tensiometer)
Experimental: The interfacial tension between aqueous solutions of tested compounds and an oil phase were measured with a spinning drop tensiometer (DataPhysics). As the composition of crude oils may vary decane, dodecane, and hexadecane were used as model oils in order to study the range of application of the tested compounds.

[3] = Modification of the wettability: contact angle of oil on oil wet polyethylene platelets; settings: for Contact angle: dodecane
Experimental: Polyethylene platelets (3 cm×2 cm) were use as hydrophobic model surfaces for oil wet rocks. As a first step, 5 μl decane or 5 μl dodecane were applied to the polyethylene platelets. The hydrophobic liquids spread on the hydrophobic surface. The contact angle between the oil and the polyethylene surface was measured using a usual contact angle measuring device (DataPhysics) and consequently a value of 0° was obtained. The oil wet platelets were submerged into an aqueous solution of 1 g/l by weight of the compound to be tested. […] The contact angle between oil and the polyethylene surface was measured as function of time. Furthermore, it was inspected visually whether oil droplets became detached from the surface.

[4] = Cloud point of conventional surfactants in saline water; settings: 1% in water having a salinity of 50.000 ppm NaCl
Experimental: For comparative purposes, two conventional surfactants were tested at a concentration of 1% in water having a salinity of 50.000 ppm NaCl and in the usual manner their cloud point was determined.

[5] = 25 °C, brine NaCl/CaCl2 (9:1) 10,000 ppm
[6] = 25 °C, brine NaCl/CaCl2 (9:1) 100,000 ppm
[7] = 60 °C, brine NaCl/CaCl2 (9:1) 10,000 ppm
[8] = 60 °C, brine NaCl/CaCl2 (9:1) 100,000 ppm

Substance | ST At 1 g/l ([1]; 25 °C, brine 10,000 ppm) [mN/m] | ST At 1 g/l ([1]; 25 °C, brine 100,000 ppm) [mN/m] | cmc [1, 5] [g/L] | cmc [1, 6] [g/L] | ST At 1 g/l ([1]; 60 °C, brine 10,000 ppm) [mN/m] | ST At 1 g/l ([1]; 60 °C, brine 100,000 ppm) [mN/m] | cmc [1, 7] [g/L] | cmc [1, 8] [g/L] | IFT after 60 min, 1 g/l of sample in aqueous phase, decane ([2]; 25 °C, brine 10,000 ppm) [mN/m] | IFT after 60 min, 1 g/l of sample in aqueous phase, decane ([2]; 25 °C, brine 100,000 ppm) [mN/m] | IFT after 60 min, 1 g/l of sample in aqueous phase, decane ([2]; 60 °C, brine 10,000 ppm) [mN/m] | IFT after 60 min, 1 g/l of sample in aqueous phase, decane ([2]; 60 °C, brine 100,000 ppm) [mN/m] | IFT after 60 min, 1 g/l of sample in aqueous phase, docecane ([2]; 25 °C, brine 10,000 ppm) [mN/m] | IFT after 60 min, 1 g/l of sample in aqueous phase, docecane ([2]; 60 °C, brine 10,000 ppm) [mN/m] | IFT after 60 min, 1 g/l of sample in aqueous phase, hexadecane ([2]; 25 °C, brine 10,000 ppm) [mN/m] | IFT after 60 min, 1 g/l of sample in aqueous phase, hexadecane ([2]; 60 °C, brine 10,000 ppm) [mN/m] | Cloud point [4] [°C] | further results
Saccharose * 40 EO diester with C12/C18 fatty acid [Compound S2] | 34.6 | 34.6 | 0.03 | 0.03 | 27.7 | 28.3 | 0.04 | 0.02 | 2.3 | 2.1 | 0.46 | 0.36 | 2.0 | 0.34 | 2.2 | 0.40 | – | –
Saccharose* 20 EO monoester with C16/C18 fatty acid [Compound S1] | 33.7 | 34.5 | 0.03 | 0.02 | 29.6 | 29.1 | 0.03 | 0.02 | 3.9 | 2.4 | 0.45 | 1.2 | 2.9 | 0.19 | 4.0 | 0.55 | – | Interfacial tension (IFT) between water and hydrocarbons of different chain lengths, change on addition of wettability modifier ([2]; hydrocarbons of different chain lengths): decreases significantly; Contact angle ([3]; 25° C., brine 10,000 ppm + 1 g/l S1, time 0 min): 6 °; Contact angle ([3]; 25° C., brine 10,000 ppm + 1 g/l S1, time 30 min): 13 °; Contact angle ([3]; 25° C., brine 10,000 ppm + 1 g/l S1, time 45 min): 14 °; Contact angle ([3]; 25° C., brine 10,000 ppm + 1 g/l S1, time 60 min): 17 °; Contact angle ([3]; 25° C., brine 10,000 ppm + 1 g/l S1, time 90 min): 22 °; Contact angle ([3]; 25° C., brine 10,000 ppm + 1 g/l S1, time 180 min): beginning; Contact angle ([3]; 25° C., brine 100,000 ppm + 1 g/l S1, time 0 min): 7 °; Contact angle ([3]; 25° C., brine 100,000 ppm + 1 g/l S1, time 30 min): 26 °; Contact angle ([3]; 25° C., brine 100,000 ppm + 1 g/l S1, time 45 min): 74 °; Contact angle ([3]; 25° C., brine 100,000 ppm + 1 g/l S1, time 60 min): oil already detached; Time of contact after which oil is detached from the surface ([3]; 60° C.): 2 min; Contact angle ([3]; 60° C., brine 10,000 ppm + 1 g/l S1, time 60 min): beginning; Contact angle ([3]; 60° C., brine 100,000 ppm + 1 g/l S1, time 0 min): oil already
C13-alcohol+20 EO | – | – | – | – | – | – | – | – | – | – | – | – | – | – | – | – | 86 | –
C16/18-alcohol+80 EO | – | – | – | – | – | – | – | – | – | – | – | – | – | – | – | – | 87 | –
